Source: patent US6054435A, “6-O-substituted macrolides having antibacterial activity” (priority 1999, dated 2000)
Converted amounts (≈) assume the structure as drawn.

Columns and labels:
Test in all cases: in vitro antibacterial activity (MIC), agar dilution
Type in all cases: cell-based
Candida albicans CCH 442 = conditions: organism code TT; BHI agar, 35-37° C., 20 to 24 hours; unit assumed
Experimental: (§1) Representative compounds of the present invention were assayed in vitro for antibacterial activity as follows: Twelve petri dishes containing successive aqueous dilutions of the test compound mixed with 10 mL of sterilized Brain Heart Infusion (BHI) agar (Difco 0418-01-5) were prepared. Each plate was inoculated with 1:100 (or 1:10 for slow-growing strains, such as Micrococcus and Streptococcus) dilutions of up to 32 different microorganisms, using a Steers replicator block. […] In addition, a control plate, using BHI agar containing no test compound, was prepared and incubated at the beginning and end of each test.
(§2) An additional plate containing a compound having known susceptibility patterns for the organisms being tested and belonging to the same antibiotic class as the test compound was also prepared and incubated as a further control, as well as to provide test-to-test comparability.
(§3) After incubation, each plate was visually inspected. The minimum inhibitory concentration (MIC) was defined as the lowest concentration of drug yielding no growth, a slight haze, or sparsely isolated colonies on the inoculum spot as compared to the growth control.

[1] = tested on: Staphylococcus aureus ATCC 6538P; conditions: organism code AA; BHI agar, 35-37° C., 20 to 24 hours; unit assumed
Experimental: as §1, §2, §3

[2] = tested on: Streptococcus agalactiae CMX 508; conditions: organism code KK; BHI agar, 35-37° C., 20 to 24 hours; unit assumed
Experimental: as §1, §2, §3

[3] = tested on: Staphylococcus aureus A5177; conditions: organism code BB; BHI agar, 35-37° C., 20 to 24 hours; unit assumed
Experimental: as §1, §2, §3

[4] = tested on: Streptococcus bovis A-5169; conditions: organism code JJ; BHI agar, 35-37° C., 20 to 24 hours; unit assumed
Experimental: as §1, §2, §3

[5] = tested on: Micrococcus luteus ATCC 4698; conditions: organism code PP; BHI agar, 35-37° C., 20 to 24 hours; unit assumed
Experimental: as §1, §2, §3

[6] = tested on: Staphylococcus epidermidis 3519; conditions: organism code HH; BHI agar, 35-37° C., 20 to 24 hours; unit assumed
Experimental: as §1, §2, §3

[7] = tested on: Streptococcus pyogenes PIU 2548; conditions: organism code NN; BHI agar, 35-37° C., 20 to 24 hours; unit assumed
Experimental: as §1, §2, §3

Escherichia coli JUHL = conditions: organism code QQ; BHI agar, 35-37° C., 20 to 24 hours; unit assumed
Experimental: as §1, §2, §3

Escherichia coli SS = conditions: organism code RR; BHI agar, 35-37° C., 20 to 24 hours; unit assumed
Experimental: as §1, §2, §3

[8] = tested on: Streptococcus pyogenes EES61; conditions: organism code LL; BHI agar, 35-37° C., 20 to 24 hours; unit assumed
Experimental: as §1, §2, §3

[9] = tested on: Staphylococcus aureus A-5278; conditions: organism code CC; BHI agar, 35-37° C., 20 to 24 hours; unit assumed
Experimental: as §1, §2, §3

[10] = tested on: Nocardia Asteroides ATCC9970; conditions: organism code VV; BHI agar, 35-37° C., 20 to 24 hours; unit assumed
Experimental: as §1, §2, §3

[11] = tested on: Staphylococcus aureus CMX 642A; conditions: organism code DD; BHI agar, 35-37° C., 20 to 24 hours; unit assumed
Experimental: as §1, §2, §3

[12] = tested on: Streptococcus Pneumonia 5649; conditions: organism code ZZA; BHI agar, 35-37° C., 20 to 24 hours; unit assumed
Experimental: as §1, §2, §3

[13] = tested on: Streptococcus Pneumonia ATCC6303; conditions: organism code XX; BHI agar, 35-37° C., 20 to 24 hours; unit assumed
Experimental: as §1, §2, §3

[14] = tested on: Streptococcus Pneumonia 5979; conditions: organism code ZZ; BHI agar, 35-37° C., 20 to 24 hours; unit assumed
Experimental: as §1, §2, §3

[15] = tested on: Streptococcus Pneumonia GYR 1171; conditions: organism code YY; BHI agar, 35-37° C., 20 to 24 hours; unit assumed
Experimental: as §1, §2, §3

[16] = tested on: Staphylococcus aureus NCTC10649M; conditions: organism code EE; BHI agar, 35-37° C., 20 to 24 hours; unit assumed
Experimental: as §1, §2, §3

[17] = tested on: Streptococcus pyogenes 930; conditions: organism code MM; BHI agar, 35-37° C., 20 to 24 hours; unit assumed
Experimental: as §1, §2, §3

[18] = tested on: Mycobacterium smegmatis ATCC 114; conditions: organism code UU; BHI agar, 35-37° C., 20 to 24 hours; unit assumed
Experimental: as §1, §2, §3

[19] = tested on: Staphylococcus aureus 1775; conditions: organism code GG; BHI agar, 35-37° C., 20 to 24 hours; unit assumed
Experimental: as §1, §2, §3

[20] = tested on: Haemophilis Influenzae DILL AMP R; conditions: organism code WW; BHI agar, 35-37° C., 20 to 24 hours; unit assumed
Experimental: as §1, §2, §3

SMILES | MIC (Candida albicans CCH 442) [mg/L] | MIC [1] [mg/L] | MIC [2] [mg/L] | MIC [3] [mg/L] | MIC [4] [mg/L] | MIC [5] [mg/L] | MIC [6] [mg/L] | MIC [7] [mg/L] | MIC (Escherichia coli JUHL) [mg/L] | MIC (Escherichia coli SS) [mg/L] | MIC [8] [mg/L] | MIC [9] [mg/L] | MIC [10] [mg/L] | MIC [12] [mg/L] | MIC [13] [mg/L] | MIC [14] [mg/L] | MIC [15] [mg/L] | MIC [16] [mg/L] | MIC [18] [mg/L] | MIC [19] [mg/L] | also measured
CC[C@H]1OC(=O)[C@H](C)C(=O)[C@H](C)[C@@H](O[C@@H]2O[C@H](C)C[C@H](N(C)C)[C@H]2O)[C@](C)(OCC#Cc2ccc(-c3ccncc3)s2)C[C@@H](C)C(=O)[C@H](C)[C@H]2NC(=O)O[C@@]21C [Example 3] | > 100 | 0.05 (≈ 0.0628 µM) | ≤ 0.05 | 0.05 (≈ 0.0628 µM) | ≤ 0.05 | 0.05 (≈ 0.0628 µM) | > 100 | 0.1 (≈ 0.126 µM) | 100 (≈ 126 µM) | 0.2 (≈ 0.251 µM) | ≤ 0.05 | > 100 | 0.01 (≈ 0.0126 µM) |  |  |  |  |  |  |  | MIC [11]: 0.1 mg/L (≈ 0.126 µM)
CC[C@H]1OC(=O)[C@H](C)C(=O)[C@H](C)[C@@H](O[C@@H]2O[C@H](C)C[C@H](N(C)C)[C@H]2O)[C@](C)(OCC#Cc2ccc(-c3cscn3)s2)C[C@@H](C)C(=O)[C@H](C)[C@H]2NC(=O)O[C@@]21C [Example 30] | > 100 | 0.02 (≈ 0.0249 µM) | 0.02 (≈ 0.0249 µM) | 0.02 (≈ 0.0249 µM) | ≤ 0.005 | 0.1 (≈ 0.125 µM) | 0.05 (≈ 0.0623 µM) | 0.1 (≈ 0.125 µM) | 12.5 (≈ 15.6 µM) | 0.1 (≈ 0.125 µM) | 0.02 (≈ 0.0249 µM) | > 100 | 0.01 (≈ 0.0125 µM) | 0.25 (≈ 0.312 µM) | ≤ 0.004 | 1 (≈ 1.25 µM) | ≤ 0.004 | 0.05 (≈ 0.0623 µM) | 0.39 (≈ 0.486 µM) | > 100 | MIC [17]: 6.2 mg/L (≈ 7.73 µM); MIC [20]: 2 mg/L (≈ 2.49 µM)
CC[C@H]1OC(=O)[C@H](C)C(=O)[C@H](C)[C@@H](O[C@@H]2O[C@H](C)C[C@H](N(C)C)[C@H]2O)[C@](C)(OCC#Cc2ccc(-c3ccccn3)s2)C[C@@H](C)C2=NCCN3C(=O)O[C@@]1(C)[C@H]3[C@H]2C [Example 35] | > 100 | 0.05 (≈ 0.0609 µM) | 0.05 (≈ 0.0609 µM) | 0.1 (≈ 0.122 µM) | 0.01 (≈ 0.0122 µM) | 0.2 (≈ 0.244 µM) | 0.1 (≈ 0.122 µM) | 0.2 (≈ 0.244 µM) | 25 (≈ 30.4 µM) | 0.39 (≈ 0.475 µM) | 0.02 (≈ 0.0244 µM) | > 100 | 0.02 (≈ 0.0244 µM) | 0.25 (≈ 0.304 µM) | ≤ 0.004 | 4 (≈ 4.87 µM) | ≤ 0.004 | 0.2 (≈ 0.244 µM) | 0.2 (≈ 0.244 µM) | > 100 | MIC [17]: 6.2 mg/L (≈ 7.55 µM); MIC [20]: 4 mg/L (≈ 4.87 µM)
CC[C@H]1OC(=O)[C@H](C)C(=O)[C@H](C)[C@@H](O[C@@H]2O[C@H](C)C[C@H](N(C)C)[C@H]2O)[C@](C)(OCC#Cc2ccc(-c3ccccn3)s2)C[C@@H](C)C(=O)[C@H](C)[C@H]2N(N)C(=O)O[C@]12C [Example 36] | > 100 | 0.05 (≈ 0.0617 µM) |  | 0.05 (≈ 0.0617 µM) |  | 0.1 (≈ 0.123 µM) | 0.1 (≈ 0.123 µM) | 0.39 (≈ 0.481 µM) |  | 0.2 (≈ 0.247 µM) |  | > 100 |  |  |  |  |  | 0.1 (≈ 0.123 µM) | 1.56 (≈ 1.92 µM) | > 100 | 
